This note sets out measurements from ChEMBL document CHEMBL4616615, “Screening for tyrosinase inhibitors from actinomycetes; identification of trichostatin derivatives from Streptomyces sp. CA-129531 and scale up production in bioreactor” (Bioorg Med Chem Lett, 2020).

One assay has as its system MCF7. In words: cells. Conditions: Homo sapiens.
For assay [1], the target named is T1, Mushroom tyrosinase (Agaricus bisporus, UniProt O42713+Q00024+C7FF04+C7FF05). Description: Inhibition of mushroom tyrosinase using L-DOPA as substrate.
The test system of another assay is A549. In words: cells. The note with it: Homo sapiens.
The subject of another assay is A2058. In words: Cytotoxicity against human A2058 cells assessed as reduction in cell viability. It counts as cell-based.
The next assay concerns MIA PaCa-2. Description: cells. Conditions: Homo sapiens.
Another assay deals with HepG2. In words: cells. Conditions: Homo sapiens.
The target of assay [2] is T1, Mushroom tyrosinase. In words: Mixed-type of inhibition of mushroom tyrosinase using varying level of L-DOPA as substrate by Dixon plot analysis.

Molecules are shown by their SMILES.

Description for A549: Cytotoxicity against human A549 cells assessed as reduction in cell viability
Description for HepG2: Cytotoxicity against human HepG2 cells assessed as reduction in cell viability
Description for MIA PaCa-2: Cytotoxicity against human MIAPaCa2 cells assessed as reduction in cell viability

As usually defined, the IC50 is the concentration that inhibits the measured activity by half. Take `CC(/C=C/C(N)=O)=C\[C@@H](C)C(=O)c1ccc(N(C)C)cc1`: the IC50 amounted to 2.74 µM in the assay on MCF7; 19.18 µM against Mushroom tyrosinase [1]; 8.3 µM with A549; 0.64 µM in the assay with A2058; 9.46 µM with MIA PaCa-2; 3.19 µM in the assay with HepG2.

`CNC(=O)/C=C/C(C)=C/[C@@H](C)C(=O)c1ccc(N(C)C)cc1`: the concentration for half-maximal inhibition (IC50) in the assay with MCF7 is 18.4 µM; on Mushroom tyrosinase [1] it was 161.18 µM; with A549, greater than 50 µM; in the assay with A2058, greater than 50 µM; in the assay on MIA PaCa-2, 36.7 µM; in the assay with HepG2 it was 13.1 µM.

For the compound `CC(/C=C/C(=O)NO[C@@H]1O[C@H](CO)[C@@H](O)[C@H](O)[C@H]1O)=C\[C@@H](C)C(=O)c1ccc(N(C)C)cc1`, the IC50 in the assay with MCF7 turned out to be 18.9 µM; on Mushroom tyrosinase [1] it was 174.33 µM; in the assay with A549, 25 µM; in the assay on A2058 it was 37.3 µM; with MIA PaCa-2 it was 37.9 µM; in the assay with HepG2 it was 17.8 µM.

For `CC(/C=C/C(=O)O)=C\[C@@](C)(O)C(=O)c1ccc(N(C)C)cc1`, the concentration for half-maximal inhibition (IC50) in the assay on MCF7, in the assay on A549, with A2058, in the assay on MIA PaCa-2 and in the assay with HepG2 was greater than 50 µM each time.

Regarding `CC(/C=C/C(=O)O)=C\[C@H](C)C(=O)c1ccc(N(C)C)cc1`, the concentration for half-maximal inhibition (IC50) in the assay with MCF7, in the assay with A549, with A2058, with MIA PaCa-2 and in the assay on HepG2 was greater than 50 µM each time.

As to `CC(/C=C/C(=O)N[C@@H](CCC(N)=O)C(=O)O)=C\[C@@H](C)C(=O)c1ccc(N(C)C)cc1`, the half-inhibitory concentration (IC50) in the assay on MCF7, with A549, in the assay with A2058, with MIA PaCa-2 and in the assay with HepG2 was greater than 50 µM throughout.

For the compound `COc1cccc2c1C(=O)c1c(O)c3c(c(O)c1C2=O)C[C@@](O)(C(=O)CO)C[C@@H]3O[C@H]1C[C@H](N)[C@H](O)[C@H](C)O1` [DOXORUBICIN], the half-inhibitory concentration (IC50) is 3.76 µM in the assay with A549, less than 0.11 µM in the assay on A2058, 1.02 µM with MIA PaCa-2 and less than 0.11 µM in the assay with HepG2.

What is called Ki is a measure of affinity in units of concentration, obtained from inhibition or displacement. On to `CC(/C=C/C(=O)NO)=C\[C@@H](C)C(=O)c1ccc(N(C)C)cc1` [TRICHOSTATIN], for which the IC50 is 0.3 µM in the assay with MCF7; 2.18 µM at Mushroom tyrosinase [1]; 1.31 µM with A549; 0.43 µM in the assay with A2058; 0.9 µM in the assay on MIA PaCa-2; 0.38 µM with HepG2. The compound further gave an inhibitory constant (Ki) on Mushroom tyrosinase [2] of 6.1 µM.
